Experiments:
Type in all cases: in vivo
sea lice (L. salmonis) = experiment: Bath treatment of sea lice infested Atlantic salmon: count of attached female sea lice; details: 2ppm for 60 minutes by bath; 12°C seawater; counted three days after treatment
Protocol: Diafenthiuron was tested for use in treating fish parasites.
Atlantic salmon were acclimatized to 12°C seawater.
Three days after treatment the number of attached female sea lice was counted. The number of adult female sea lice was reduced by 56% in the treated group.

Lepeophtheirus salmonis = experiment: Lesa assay: bioassay on salmon lice, 1 hour exposure in seawater; details: monitored until 96 hours post exposure, 8-10 °C
Protocol: The stock was then diluted in saltwater to the appropriate concentration.
Control formulations were also prepared comprising only solvent (acetone) and solubilizer (Kolliphor EL) in the same ratio as the test formulation. A salt water control was also used.
Bioassay experiments were then conducted on copepodites and pre-adult/adult salmon lice (Lepeophtheirus salmonis).
After 1 hour exposure, the lice were transferred to modified 6 well plates and washed twice in saltwater. The plates were then incubated and the numbers of dead and surviving lice were monitored until 96 hours post exposure. The experimental temperature was maintained at 8-10 °C.

[1] = tested on: tilapia (Oreochromis niloticus); experiment: Toxicity to fish, intraperitoneal injection
Protocol: . Tilapia of mean weight of 158 grams reared in freshwater at 29°C were distributed in three groups of 10 fish. Each group was injected with 0.05 ml of the relevant formulation, or PBS control.

CC(C)c1cc(Oc2ccccc2)cc(C(C)C)c1NC(=S)NC(C)(C)C [Diafenthiuron, 1-tert-butyl-3-(2,6-diisopropyl-4-phenoxyphenyl)thiourea]
reduction of the number of adult female sea lice (sea lice (L. salmonis)): 56% | % dead (Lepeophtheirus salmonis; Copepodites, 0.5 ppm): 77% | Dead/total (Lepeophtheirus salmonis; Copepodites, 0.5 ppm): 10/13 | % dead (Lepeophtheirus salmonis; Copepodites, 2.0 ppm): 100% | Dead/total (Lepeophtheirus salmonis; Copepodites, 2.0 ppm): 20/20 | % dead (Lepeophtheirus salmonis; Copepodites, 20 ppb): 48% | Dead/total (Lepeophtheirus salmonis; Copepodites, 20 ppb): 11/23 | % dead (Lepeophtheirus salmonis; Pre-adult/adult, 2.0 ppm): 100% | Dead/total (Lepeophtheirus salmonis; Pre-adult/adult, 2.0 ppm): 5/5 | % mortality ([1]; 0.05 ml of 25 mg/ml in PEG400 (85%)/DMSO (15%), intraperitoneal injection, 5 days, same mortality in group without diafenthiuron): 10% | No. of fish healthy after 5 days ([1]; 0.05 ml of 25 mg/ml in PEG400 (85%)/DMSO (15%), intraperitoneal injection, freshwater 29°C, 10 fish): 9/10 | treated fish alive and healthy ([1]; five days after treatment, 25 mg/ml in PEG400/DMSO, 0.05 ml intraperitoneal injection): 90%

From patent EP3331365B1, “AGENT FOR FIGHTING FISH PARASITES” (Pharmaq AS, priority 2015, dated 2017)
